Assays:
Ovary OVCAR-5 = experiment: Preliminary in vitro cytotoxicity on six cell lines
Lung A-549 = experiment: as above
Colon HCT-15 = experiment: as above; settings: unit assumed
Liver HEP-2 = experiment: as above; settings: unit assumed
Neuroblastoma IMR-32 = experiment: as above
calf thymus DNA (CT-DNA) = experiment: Thermal denaturation studies with duplex-form calf thymus DNA; format: binding; settings: [PBD]:[DNA] 1:5, CT-DNA 100 μM, ligand 20 μM, pH 7.00; for ΔTm after incubation at 37° C. for 0 h: 0 h at 37° C.; for ΔTm after incubation at 37° C. for 18 h: 18 h at 37° C.
Description: Compounds have been subjected to thermal denaturation studies with duplex-form calf thymus DNA (CT-DNA) using an modification of a reported procedure (Newman, M. S. Carcinog-compr. Surv. 1976, 1, 203; (b) Hecht, S. S.; Loy, M.; Hoffman, Carcinog-compr. Surv. 1976, 1, 325). Working solutions in aqueous buffer (10 mM NaH2PO4/Na2HPO4, 1 mM Na2EDTA, pH 7.00+0.01) containing CT-DNA (100 μm in phosphate) and the PBD (20 μm) have been prepared by addition of concentrated PBD solutions in DMSO to obtain a fixed [PBD]/[DNA] molar ratio of 1:5. The DNA−PBD solutions have been incubated at 37° C. for 0 and 18 h prior to analysis. Samples have been monitored at 260 nm using a Beckman DU-800 spectrophotometer fitted with high performance temperature controller, and heated at 1° C. min^−1
in the 40-110° C. range. DNA helix[…]coil transition temperatures (Tm) have been obtained from the maxima in the d(A260)/dT derivative plots. Drug-induced alterations in DNA melting behavior are given by: ΔTm=Tm(DNA+PBD)−Tm (DNA alone), where the Tm value for the PBD-free CT-DNA is 69.1±0.01.

Colon 502713 = experiment: Preliminary in vitro cytotoxicity on six cell lines; settings: concentration (mg/ml) 1 × 10^−5 M
[1] = concentration (mg/ml) 1 × 10^−6 M
[2] = concentration (mg/ml) 1 × 10^−5 M

COc1cccc2c1C(=O)c1c(O)c3c(c(O)c1C2=O)C[C@@](O)(C(=O)CO)C[C@@H]3O[C@H]1C[C@H](N)[C@H](O)[C@H](C)O1 [Adriamycin, reference compound]
Preliminary in vitro cytotoxicity data (Ovary OVCAR-5; [1]): 30
Preliminary in vitro cytotoxicity data (Lung A-549; [1]): 61
Preliminary in vitro cytotoxicity data (Colon HCT-15; [1]): 58%
Preliminary in vitro cytotoxicity data (Liver HEP-2; [1]): 31%
Preliminary in vitro cytotoxicity data (Neuroblastoma IMR-32; [1]): 80

COc1cc2c(cc1OCCCCCN1CCN(C(=S)SCCC(C#N)(c3ccccc3)c3ccccc3)CC1)N=C[C@@H]1CCCN1C2=O [Compound 12d, 3-cyano-3,3-diphenylpropyl 4-(5-[(11aS)-7-(methyloxy)-5-oxo-2,3,5,11a-tetrahydro-1H-benzo[e]pyrrolo[1,2-a][1,4]diazepin-8-yl]oxypentyl)hexahydro-1-pyrazinecarbodithioate]
ΔTm after incubation at 37° C. for 0 h (calf thymus DNA (CT-DNA)): 2.0 °C
ΔTm after incubation at 37° C. for 18 h (calf thymus DNA (CT-DNA)): 2.1 °C

COc1cc2c(cc1OCCCSC(=S)N1CCN(CCCN3C(=O)c4cccc5cccc(c45)C3=O)CC1)N=C[C@@H]1CCCN1C2=O [Compound 13b, 3-[(11aS)-7-(methyloxy)-5-oxo-2,3,5,11a-tetrahydro-1H-benzo[e]pyrrolo[1,2-a][1,4]diazepin-8-yl]oxypropyl4-[3-(1,3-dioxo-2,3-dihydro-1H-benzo[de]isoquinolin-2-yl)propyl]hexahydro-1-pyrazinecarbodithioate]
ΔTm after incubation at 37° C. for 0 h (calf thymus DNA (CT-DNA)): 3.1 °C
ΔTm after incubation at 37° C. for 18 h (calf thymus DNA (CT-DNA)): 3.3 °C

COc1cc2c(cc1OCCCCSC(=S)N1CCN(CCCN3C(=O)c4cccc5cccc(c45)C3=O)CC1)N=C[C@@H]1CCCN1C2=O [Compound 13c, 4-[(11aS)-7-(methyloxy)-5-oxo-2,3,5,11a-tetrahydro-1H-benzo[e]pyrrolo[1,2-a][1,4]diazepin-8-yl]oxybutyl4-[3-(1,3-dioxo-2,3-dihydro-1H-benzo[de]isoquinolin-2-yl)propyl]hexahydro-1-pyrazinecarbodithioate]
ΔTm after incubation at 37° C. for 0 h (calf thymus DNA (CT-DNA)): 5.0 °C
ΔTm after incubation at 37° C. for 18 h (calf thymus DNA (CT-DNA)): 5.0 °C

COc1cc2c(cc1OCCCCCSC(=S)N1CCN(CCCN3C(=O)c4cccc5cccc(c45)C3=O)CC1)N=C[C@@H]1CCCN1C2=O [Compound 13d, 5-[(11aS)-7-(methyloxy)-5-oxo-2,3,5,11a-tetrahydro-1H-benzo[e]pyrrolo[1,2-a][1,4]diazepin-8-yl]oxypentyl4-[3-(1,3-dioxo-2,3-dihydro-1H-benzo[de]isoquinolin-2-yl)propyl]hexahydro-1-pyrazinecarbodithioate]
ΔTm after incubation at 37° C. for 0 h (calf thymus DNA (CT-DNA)): 4.0 °C
ΔTm after incubation at 37° C. for 18 h (calf thymus DNA (CT-DNA)): 4.6 °C

COc1cc2c(cc1OCCCCSC(=S)N1CCN(C)CC1)N=C[C@@H]1CCCN1C2=O [Compound 14c, 4-[(11aS)-7-(methyloxy)-5-oxo-2,3,5,11a-tetrahydro-1H-benzo[e]pyrrolo[1,2-a][1,4]diazepin-8-yl]oxybutyl4-methylhexahydro-1-pyrazinecarbodithioate]
ΔTm after incubation at 37° C. for 0 h (calf thymus DNA (CT-DNA)): 2.1 °C
ΔTm after incubation at 37° C. for 18 h (calf thymus DNA (CT-DNA)): 2.2 °C
Preliminary in vitro cytotoxicity data (Ovary OVCAR-5; [2]): 36
Preliminary in vitro cytotoxicity data (Colon 502713): 75
Preliminary in vitro cytotoxicity data (Lung A-549; [2]): 50
Preliminary in vitro cytotoxicity data (Colon HCT-15; [2]): 82%
Preliminary in vitro cytotoxicity data (Liver HEP-2; [2]): 66%
Preliminary in vitro cytotoxicity data (Neuroblastoma IMR-32; [2]): 86

COc1cc2c(cc1OCCCCCSC(=S)N1CCN(C)CC1)N=C[C@@H]1CCCN1C2=O [Compound 14d, 5-[(11aS)-7-(methyloxy)-5-oxo-2,3,5,11a-tetrahydro-1H-benzo[e]pyrrolo[1,2-a][1,4]diazepin-8-yl]oxypentyl4-methylhexahydro-1-pyrazinecarbodithioate]
ΔTm after incubation at 37° C. for 0 h (calf thymus DNA (CT-DNA)): 6.0 °C
ΔTm after incubation at 37° C. for 18 h (calf thymus DNA (CT-DNA)): 10.9 °C
Preliminary in vitro cytotoxicity data (Ovary OVCAR-5; [2]): 22
Preliminary in vitro cytotoxicity data (Colon 502713): 78
Preliminary in vitro cytotoxicity data (Lung A-549; [2]): 31
Preliminary in vitro cytotoxicity data (Colon HCT-15; [2]): 50%
Preliminary in vitro cytotoxicity data (Liver HEP-2; [2]): 66%
Preliminary in vitro cytotoxicity data (Neuroblastoma IMR-32; [2]): 95

COc1cc2c(cc1O)N=CC1CCCN1C2=O (stereo not shown) [DC-81, reference compound]
ΔTm after incubation at 37° C. for 0 h (calf thymus DNA (CT-DNA)): 0.3 °C
ΔTm after incubation at 37° C. for 18 h (calf thymus DNA (CT-DNA)): 0.7 °C

Source: patent publication US8592407B2, “Pyrrolo[2,1-c][1,4] benzodiazepine derivatives with dithiocarbamate side chains and process for the preparation thereof” (Council of Scientific & Industrial Research, priority 2008, dated 2013)
